# Assay results reported in patent US10149881B2, “Method for treating inflammatory, allergic or asthma diseases, containing paprika extracts” (priority 2010, dated 2018).
# Columns and labels:
# Format in all cases: in vivo, mice
# IgG2a = experiment: Analysis of IgG2a, OVA asthma mouse model; details: FIG. 14
# Method: (§1) Meanwhile, immunoglobulin IgG2a is produced by activation of Th1 cells, and the activity of Th1 cells reduces the level of IgG1 which is increased by the activity of Th2 cells. Thus, IgG1 and IgG2a were analyzed.
# IgG1 = experiment: Analysis of IgG1, OVA asthma mouse model; details: blood; FIG. 11, FIG. 14
# Method: as §1
# immunoglobulin-E (IgE) = experiment: Measurement of blood immunoglobulin E (IgE) level, OVA asthma mouse model; details: FIG. 13
# Method: When asthma in mice is induced using OVA, the immunoglobulin-E (IgE) among the blood antibody levels of the mice increases in proportion to the severity of asthma. Based on this principle, the paprika extract obtained according to the method of Example 1 was named “sample SP526”, and the blood immunoglobulin-E (IgE) level of the mice was measured. Also, the level of immunoglobulin-E (IgE) was measured.
# [1] = test system: infiltration of immune cells; experiment: Immune cell infiltration, comparison with luteolin in asthma model; details: FIG. 12
# Method: In order to examine whether the asthma inhibitory effect of the paprika extract of the present invention is attributable to a combination of components or a specific component alone, the following test was carried out. Specifically, the immune cell infiltration of luteolin was examined.
smiles,measurement,setting,value
O=c1cc(-c2ccc(O)c(O)c2)oc2cc(O)cc(O)c12 [luteolin],"IgG2a, index of the activation of Th1 cells",IgG2a,produced IgG2a
same,expression of IgG1,IgG1,not inhibited
same,effect on blood immunoglobulin-E levels,immunoglobulin-E (IgE),did not reduce
same,infiltration of immune cells,[1],inhibited the infiltration of immune cells
